In US20250188110A1, “SPECIFIC SMALL MOLECULE INHIBITORS THAT BLOCK KMT9 METHYLTRANSFERASE ACTIVITY AND FUNCTION” (ALBERT-LUDWIGS-UNIVERSITÄT FREIBURG, priority 2021, published 2025):
Like-named read-outs stand apart in the source and are kept apart here.

Legend:
KMT9 [1] = biological target: T1, KMT9 (Homo sapiens, UniProt Q9Y5N5); assay: KMT9 methyltransferase inhibition assay, MTaseGlo luminescence (from entry 155); format: biochemical; settings: 100 nM KMT9, 5 μM ETF1, 1 μM SAM
T1 sequence (Q9Y5N5 1-214): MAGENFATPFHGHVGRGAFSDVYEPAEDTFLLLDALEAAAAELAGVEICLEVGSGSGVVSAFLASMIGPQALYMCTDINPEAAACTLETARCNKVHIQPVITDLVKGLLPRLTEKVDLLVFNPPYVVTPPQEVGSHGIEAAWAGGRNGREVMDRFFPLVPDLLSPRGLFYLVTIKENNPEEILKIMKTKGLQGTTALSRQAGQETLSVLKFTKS
T1 sequence (Q9UI30 1-120 isoform Q9UI30-2 partner): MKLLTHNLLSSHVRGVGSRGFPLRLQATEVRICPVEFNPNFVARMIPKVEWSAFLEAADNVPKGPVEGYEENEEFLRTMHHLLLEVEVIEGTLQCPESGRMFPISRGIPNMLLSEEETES
Outline: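 KMT9 (100 nM final) pre-incubated with inhibitor for 15 min at room temperature, then reacted with 5 μM ETF1 and 1 μM SAM for 2 h at 30° C. at 2% DMSO final. MTaseGlo luminescence read after 60 min detection; IC50 reported in four potency bins.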

KMT9 [2] = biological target: T1, KMT9; assay: KMT9 thermal shift assay (SyproOrange); format: binding
Outline: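 Recombinant KMT9 was incubated with compound and SyproOrange at 25° C in 50 mM BTP pH 8.5, 1 mM MgCl2, 1 mM DTT. It was then heated from 20° C to 95° C at 1° C per 15 s with fluorescence read each step. Tm came from a Boltzmann sigmoidal fit; ΔTm relative to DMSO control, binned in 5 K ranges.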

KMT9 [3] = biological target: T1, KMT9; assay: Microscale thermophoresis (MST) KMT9 binding
Outline: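 His-tagged KMT9 (20 nM), RED-Tris-NTA labelled, titrated with varying compound concentrations in 25 mM HEPES pH 7.5, 100 mM NaCl, 1 mM DTT, 0.05% Tween. MST at 40% MST and 100% LED power, Nano-RED excitation; Kd binned A ≤10 nM, B 10–100, C 100–1000, D >1000 nM.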

[4] = IC50 class, MTaseGlo procedure (entries from 155 on), read-out: Inhibition
[5] = ΔTm class, 500 uM compound, 2 μM KMT9, read-out: Thermal shift
[6] = His-tag labelled KMT9 20 nM, Kd class, read-out: MST
[7] = MTaseGlo procedure (entries from 155), read-out: Inhibition (IC50)
[8] = 500 µM compound, 2 μM KMT9, read-out: Thermal shift (ΔTm)
[9] = His-tag labelled KMT9 20 nM, read-out: MST (Kd)
[10] = from entry 155: MTaseGlo assay, read-out: Inhibition
[11] = ΔTm, 500 µM compound, 2 μM KMT9, 5X SO, read-out: Thermal shift
[12] = microscale thermophoresis, His-tag labelled KMT9 (20 nM), read-out: MST

Row | SMILES | IC50 (KMT9 [1]; [7]) | ΔTm at 500 µM (KMT9 [2]; [8]) | Kd (KMT9 [3]; [9]) | further results
1 | CC(C)N1CCC([C@H]2C[C@@H](n3cc(-c4nc(Cc5ccccc5)cs4)c4c(N)nc(Cl)nc43)[C@H](O)[C@@H]2O)CC1 [Compound 506, (1R,2S,3R,5R)-3-[4-amino-5-(4-benzyl-1,3-thiazol-2-yl)-2-chloropyrrolo[2,3-d]pyrimidin-7-yl]-5-(1-isopropylpiperidin-4-yl)cyclopentane-1,2-diol] | – | – | – | IC50 (KMT9 [1]; [4]): 100 to 1000 nM; ΔTm at 500 µM (KMT9 [2]; [5]): > 20 °C; Kd (KMT9 [3]; [6]): ≤ 10 nM
2 | CN(CCCNCCc1ccc(F)cc1)C[C@H]1C[C@@H](n2cc(-c3nc(Cc4ccccc4)cs3)c3c(N)nc(Cl)nc32)[C@H](O)[C@@H]1O [Compound 647, (1R,2S,3R,5R)-3-(4-Amino-5-(4-benzylthiazol-2-yl)-2-chloro-7H-pyrrolo[2,3-d]pyrimidin-7-yl)-5-(((3-((4-fluorophenethyl)amino)propyl)(methyl)amino)methyl)cyclopentane-1,2-diol] | 1000 to 10000 nM | > 20 °C | 10 to 100 nM | –
3 | CN(CCCNCCc1ccc(F)cc1)C[C@H]1C[C@@H](n2cc(-c3nccs3)c3c(N)nc(Cl)nc32)[C@H](O)[C@@H]1O [Compound 648, (1R,2S,3R,5R)-3-[4-Amino-2-chloro-5-(1,3-thiazol-2-yl)pyrrolo[2,3-d]pyrimidin-7-yl]-5-{[(3-{[2-(4-fluorophenyl)ethyl]amino}propyl)(methyl)amino]methyl}cyclopentane-1,2-diol] | 100 to 1000 nM | > 20 °C | ≤ 10 nM | –
4 | CN(CCCNCCc1ccc(F)cc1)C[C@H]1C[C@@H](n2cc(-c3ccn(Cc4ccccc4)n3)c3c(N)nc(Cl)nc32)[C@H](O)[C@@H]1O [Compound 643, (1R,2S,3R,5R)-3-[4-Amino-5-(1-benzylpyrazol-3-yl)-2-chloropyrrolo[2,3-d]pyrimidin-7-yl]-5-{[(3-{[2-(4-fluorophenyl)ethyl]amino}propyl)(methyl)amino]methyl}cyclopentane-1,2-diol] | 100 to 1000 nM | > 20 °C | ≤ 10 nM | –
5 | Nc1ncnc2c1ccn2[C@@H]1C[C@H](c2ccccc2)[C@@H](O)[C@H]1O [Compound 385, (1R,2S,3R,5R)-3-(4-amino-7H-pyrrolo[2,3-d]pyrimidin-7-yl)-5-phenylcyclopentane-1,2-diol] | – | – | – | IC50 (KMT9 [1]; [10]): > 10000 nM; ΔTm at 500 µM (KMT9 [2]; [11]): ≤ 10 °C; Kd (KMT9 [3]; [12]): > 1000 nM
6 | O[C@@H]1[C@@H](CNCCCNCCc2ccccc2)C[C@@H](n2cc(-c3cc(Cc4ccccc4)ns3)c3cncnc32)[C@@H]1O [Compound 617, (1R,2S,3R,5R)-3-[5-(3-Benzyl-1,2-thiazol-5-yl)pyrrolo[2,3-d]pyrimidin-7-yl]-5-[({3-[(2-phenylethyl)amino]propyl}amino)methyl]cyclopentane-1,2-diol] | – | – | – | IC50 (KMT9 [1]; [10]): 1000 to 10000 nM; ΔTm at 500 µM (KMT9 [2]; [11]): 10 to 15 °C; Kd (KMT9 [3]; [12]): > 1000 nM
7 | Nc1nc(Cl)nc2c1c(-c1ccn(Cc3ccccc3)n1)cn2[C@@H]1C[C@H](C2CCNCC2)[C@@H](O)[C@H]1O [Compound 501, (1R,2S,3R,5R)-3-(4-Amino-5-(1-benzyl-1H-pyrazol-3-yl)-2-chloro-7H-pyrrolo[2,3-d]pyrimidin-7-yl)-5-(piperidin-4-yl)cyclopentane-1,2-diol] | – | – | – | IC50 (KMT9 [1]; [10]): < 100 nM; ΔTm at 500 µM (KMT9 [2]; [11]): > 20 °C; Kd (KMT9 [3]; [12]): ≤ 10 nM
8 | Nc1nc(Cl)nc2c1c(-c1ccccc1)cn2[C@@H]1C[C@H](CNCCCNCCc2cccc(Oc3ccccc3)c2)[C@@H](O)[C@H]1O [Compound 564, (1R,2S,3R,5R)-3-(4-amino-2-chloro-5-phenyl-7//pyrrolo[2,3-d]pyrimidin-7-yl)-5-(((3-((3-phenoxyphenethyl)amino)propyl)amino)methyl)cyclopentane-1,2-diol] | 1000 to 10000 nM | > 20 °C | 10 to 100 nM | –
9 | CN(CCCNCCc1ccc(F)cc1)C[C@H]1C[C@@H](n2cc(-c3ccccc3)c3c(N)nc(Cl)nc32)[C@H](O)[C@@H]1O [Compound 575, (1R,2S,3R,5R)-3-(4-amino-2-chloro-5-phenyl-7H-pyrrolo[2,3-d]pyrimidin-7-yl)-5-(((3-((4-fluorophenethyl)amino)propyl)(methyl)amino)methyl)cyclopentane-1,2-diol] | 100 to 1000 nM | 15 to 20 °C | ≤ 10 nM | –
10 | O[C@@H]1[C@@H](CNCCCNCCc2ccc(C(F)(F)F)cc2)C[C@@H](n2cc(-c3cc(Cc4ccccc4)cs3)c3cncnc32)[C@@H]1O [Compound 619, (1R,2S,3R,5R)-3-(5-(4-Benzylthiophen-2-yl)-7H-pyrrolo[2,3-d]pyrimidin-7-yl)-5-(((3-((4-(trifluoromethyl)phenethyl)amino)propyl)amino)methyl)cyclopentane-1,2-diol] | – | – | – | IC50 (KMT9 [1]; [4]): > 10000 nM; ΔTm at 500 µM (KMT9 [2]; [5]): ≤ 10 °C; Kd (KMT9 [3]; [6]): > 1000 nM
11 | Nc1ncnc2c1c(-c1nc(Cc3ccccc3)cs1)cn2[C@@H]1C[C@H](C2=CCCNC2)[C@@H](O)[C@H]1O [Compound 503, (1R,2S,3R,5R)-3-(4-amino-5-(4-benzylthiazol-2-yl)-7H-pyrrolo[2,3-d]pyrimidin-7-yl)-5-(1,2,5,6-tetrahydropyridin-3-yl)cyclopentane-1,2-diol] | – | – | – | IC50 (KMT9 [1]; [10]): 1000 to 10000 nM; ΔTm at 500 µM (KMT9 [2]; [11]): 15 to 20 °C; Kd (KMT9 [3]; [12]): 100 to 1000 nM
12 | O[C@@H]1[C@@H](CNCCCNCCc2ccc(F)cc2)C[C@@H](n2cc(-c3cc(Cc4ccccc4)cs3)c3cncnc32)[C@@H]1O [Compound 618, (1R,2S,3R,5R)-3-[5-(4-Benzylthiophen-2-yl)pyrrolo[2,3-d]pyrimidin-7-yl]-5-{[(3-{[2-(4-fluorophenyl)ethyl]amino}propyl)amino]methyl}cyclopentane-1,2-diol] | – | – | – | IC50 (KMT9 [1]; [4]): 1000 to 10000 nM; ΔTm at 500 µM (KMT9 [2]; [5]): 10 to 15 °C; Kd (KMT9 [3]; [6]): 100 to 1000 nM

Now from value to compound, other results behind:

Row | IC50 (KMT9 [1]; [7]) | ΔTm at 500 µM (KMT9 [2]; [8]) | Kd (KMT9 [3]; [9]) | SMILES | further results
13 | 1000 to 10000 nM | 10 to 15 °C | 100 to 1000 nM | CC1CNCCC1[C@H]1C[C@@H](n2cc(-c3nc(Cc4ccccc4)cs3)c3c(N)ncnc32)[C@H](O)[C@@H]1O (stereo partly drawn) [Compound 595, (1R,2S,3R,5R)-3-[4-amino-5-(4-benzyl-1,3-thiazol-2-yl)pyrrolo[2,3-d]pyrimidin-7-yl]-5-(3-methylpiperidin-4-yl)cyclopentane-1,2-diol] | –
14 | > 10000 nM | ≤ 10 °C | > 1000 nM | Nc1nc(Cl)nc2c1ccn2[C@@H]1C[C@H](c2cnn(CCc3ccccc3)c2)[C@@H](O)[C@H]1O [Compound 584, (1R,2S,3R,5R)-3-(4-Amino-2-chloro-7H-pyrrolo[2,3-d]pyrimidin-7-yl)-5-(1-phenethyl-1H-pyrazol-4-yl)cyclopentane-1,2-diol] | –
15 | 100 to 1000 nM | ≤ 10 °C | 10 to 100 nM | COc1cc([C@H]2C[C@@H](n3ccc4c(N)nc(Cl)nc43)[C@H](O)[C@@H]2O)ccn1 [Compound 663, (1R,2S,3R,5R)-3-{4-Amino-2-chloropyrrolo[2,3-d]pyrimidin-7-yl}-5-(2-methoxypyridin-4-yl)cyclopentane-1,2-diol] | –
16 | 100 to 1000 nM | 15 to 20 °C | ≤ 10 nM | Cn1cc(Cl)c(-c2cn([C@@H]3C[C@H](c4cccc(CN5CCC5)c4)[C@@H](O)[C@H]3O)c3nc(Cl)nc(N)c23)n1 [Compound 675, (1R,2S,3R,5R)-3-(4-amino-2-chloro-5-(4-chloro-1-methyl-1H-pyrazol-3-yl)-7H-pyrrolo[2,3-d]pyrimidin-7-yl)-5-(3-(azetidin-1-ylmethyl)phenyl)cyclopentane-1,2-diol] | –
17 | 1000 to 10000 nM | 10 to 15 °C | 10 to 100 nM | COc1cc(-c2cnsc2)cc([C@H]2C[C@@H](n3ccc4c(N)nc(Cl)nc43)[C@H](O)[C@@H]2O)c1 [Compound 667, (1R,2S,3R,5R)-3-(4-amino-2-chloro-7H-pyrrolo[2,3-d]pyrimidin-7-yl)-5-(3-(isothiazol-4-yl)-5-methoxyphenyl)cyclopentane-1,2-diol] | –
18 | 1000 to 10000 nM | ≤ 10 °C | 100 to 1000 nM | Nc1nc(Cl)nc2c1ccn2[C@@H]1C[C@H](c2cccc(OC(F)(F)F)c2)[C@@H](O)[C@H]1O [Compound 668, (1R,2S,3R,5R)-3-(4-amino-2-chloro-7H-pyrrolo[2,3-d]pyrimidin-7-yl)-5-(3-(trifluoromethoxy)phenyl)cyclopentane-1,2-diol] | –
